Common to all, as to type: cell-based
Assay [1] has as its target T1, short form of the GPR120 receptor (Homo sapiens, UniProt Q5NUL3).
T1 construct: host or cells: PathHunter CHO-K1 GPR120S β-Arrestin Cell Line
T1 sequence (Q5NUL3 1-361): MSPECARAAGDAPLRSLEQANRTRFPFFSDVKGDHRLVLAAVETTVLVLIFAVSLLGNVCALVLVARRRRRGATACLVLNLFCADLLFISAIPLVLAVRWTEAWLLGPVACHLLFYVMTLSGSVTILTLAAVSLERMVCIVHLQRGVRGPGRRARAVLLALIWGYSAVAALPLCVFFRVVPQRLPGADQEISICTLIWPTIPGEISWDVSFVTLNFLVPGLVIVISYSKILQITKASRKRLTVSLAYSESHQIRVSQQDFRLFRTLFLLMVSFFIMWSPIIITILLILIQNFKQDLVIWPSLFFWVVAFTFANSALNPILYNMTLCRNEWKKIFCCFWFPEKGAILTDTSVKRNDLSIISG
Nature of the assay: Human GPR120 DiscoveRx PathHunter Beta-Arrestin Assay, Procedure β-arrestin B (5000 cells/well). From the text: (§1) The binding of an agonist (medium/long chain fatty acids or small molecule agonists) to the G-protein-coupled receptor GPR120 activates phospholipase C, leading to release of intracellular Ca^+2 through the generation of inositol 1,4,5-trisphosphate (InsP3 or IP3). GPR120 activation can also trigger intracellular signaling via recruitment of β-Arrestin. In the present method, agonist-induced activation of the human GPR120 receptor is monitored through the use of PathHunter CHO-K1 GPR120 β-Arrestin Cell Line engineered by DiscoveRx, as detailed below. The cell lines are designed to co-express both the ProLink/Enzyme Donor (PK)-tagged GPCR and the Enzyme Activator (EA)-tagged β-Arrestin fusion proteins. Upon GPR120 receptor stimulation/activation, the EA-tagged β-Arrestin portion is translocated to the tagged receptor, where the two enzyme fragments are brought within close proximity. Under these conditions, these fragments can interact and form an active Beta-gal enzyme complex through Enzyme Fragment Complementation (EFC). This active Beta-gal complex can enzymatically hydrolyse the substrate to produce a detectable light signal; therefore, activation as a function of agonist concentration can be expressed as an EC50 value to determine relative compound activities. This in vitro assay therefore serves to assess compound agonist activity of the GPR120.
In Procedure β-arrestin B the cells used were PathHunter CHO-K1 GPR120S β-Arrestin Cell Line, expressing the short form of the GPR120 receptor (Accession #NM_181745), with 5000 cells/well.
(§2) The selected CHO-K1 GPR120 β-Arrestin cells were cultured in Ham's F12 media supplemented with 10% fetal bovine serum (FBS), 1% Glutamine, 1×p/s, 800 μg/ml G418 and 300 μg/ml Hygromycin B (for selection). Cell stocks were maintained and grown in a sub-confluent state using standard cell culture procedures. The day before the experiment, the cells were harvested with non-enzymatic cell dissociation buffer and re-suspended in complete growth media at the desired concentration. A Corning 384-plate was then seeded with the proper number of cells in a volume of 25 μL, per well. The seeded plates were incubated overnight at 37° C.
(§3) On the day of the experiment, the Assay Buffer containing (a) HBSS with Ca^++ and Mg^++, (b) 20 mM HEPES, and (c) 0.1% BSA stabilizer (pH 7.4) was prepared. The growth medium was gently removed from the cell plates and 20 μL of Assay Buffer added to each well. The plate was then incubated at 37° C. for 60 mins. Test compounds were serially diluted in Assay Buffer to desired concentrations (more particularly, to one or more of the following μM concentrations: 25 μM, 12.5 μM, 6.25 μM, 3.125 μM, 1.562 μM, 0.781 μM, 0.391 μM, 0.195 μM, 0.098 μM, 0.049 μM, 0.024 μM, 0.012 μM). Five μl of compound dilution was then added to each well and the plate incubated at 37° C. for 90 mins. The detection reagents were prepared according to the manufacture's instruction. Twelve μL of the detection reagents were added to each well and the plate incubated at room temperature for 60 mins.
(§4) The plates were read on an EnVision instrument, using Protocol name: Luminescence, Plate type: 384 Costar, Measurement height: 3 mm, Measurement time: 1 s, Aperture: 384 Plate aperture. The % activity relative to the positive control was calculated using the following equation:
(§5) The % Activity values were plotted versus the concentration of test compound and fitted to a sigmoidal dose-response curve with a Hill slope=1 (fixed value) using nonlinear regression with GraphPad Prism 5.0 to calculate the EC50 values. The Fitting Equation was: Y=Bottom+(Top−Bottom)/(1+10^((LogEC50−X)*HillSlope)), where X is the log of the concentration and Y is the response.

For assay [2], the target named is T2, Human GPR120 short form (Homo sapiens, UniProt Q5NUL3).
T2 construct: expressed in transfected cells
T2 sequence (Q5NUL3 1-361): T1 sequence (Q5NUL3 1-361)
Kind of assay: Human GPR120 in Calcium Flux Assay, Procedure Calcium A (2500 cells/well). From the text:
This in vitro assay serves to assess test compound agonist activity against the short splice variant (SVS with Accession number NM_001195755.1 confirmed by sequencing data) of the GPR120 receptor. The Human Short splice variant #2 (NM_001195755.1) is missing an in-frame coding exon compared to variant 1 (the Human Long splice variant NM_181745.3), resulting in a shorter isoform (GPR120-S) lacking a 16 aa protein segment compared to isoform GPR120-L. The assay platform utilizes HEK-293 cells stably transfected to express the Human GPR120 short form. These cells are first loaded with the Ca^+2 sensitive dye, Fluo-4 NW. Upon stimulation, intracellular released Ca^+2 can bind to the dye and alter its fluorescence intensity. This increase in fluorescence signal, and thus the flux in intracellular [Ca^+2], is detected and quantitated by fluorescence imaging using a FLIPR reader. The effect of the agonist is measured as a function of concentration and used to calculate an EC50 based upon a response curve.
In this procedure 2500 cells/well were employed.
A Human GPR120 clone (Genbank accession number NM_001195755.1) was placed into the pcDNA3.1 mammalian expression vector carrying the neomycin resistance gene. A stable mammalian cell was generated by placing the above clone into a HEK293 background. Clonal cells responding to long chain fatty acids had expression levels of GPR120 confirmed by RT-qPCR. Human HEK-GPR120 cells were cultured in Dulbecco's Modified Eagle's Medium (DMEM)/F12 medium supplemented with 10% fetal bovine serum (FBS), 1% L-Glutamine and 1% penicillin/streptomycin and 0.5 mg/ml G-418. Cells were split 2 times a week to keep the cells in the log-phase growth.
In preparation for the assay, HEK cells stably transfected with Human GPR120 (2.5K cells per well in 25 uL growth medium) were seeded into 384-well plates and then incubated overnight (37° C., 5% CO2). The next day, the media was changed to 20 μl assay buffer and the cell starved for 1 h at 37° C. The dye loading solution (2× dye) was prepared using 10 ml assay buffer, 100 μl of 250 mM probenecid, 1 bottle of Component A, and 20 μl of dye in DMSO. Twenty μl of the 2× dye loading buffer was then added to each well. The plates were incubated at 37° C. for 30 min, then at room temperature for an additional 15 minutes, before performing the assay on FLIPR.
Test compounds were prepared in assay buffer (2 μl of test compound+198 μl assay buffer, final DMSO in assay plate is 0.2%) at the desired concentration, more particularly at 100 μM, 50 μM, 25 μM, 12.5 μM, 6.25 μM, 3.125 μM, 1.562 μM, 0.781 μM, 0.391 μM, 0.195 μM, 0.098 μM, 0.049 μM, 0.024 μM and 0.012 μM.
The assay was performed on a FLIPR plate reader using the following parameters. Baseline was read for 10 seconds at 1 sec intervals. The program was set to transfer 10 μL of ligand from compound plate to cell plate after baseline reading. Aspiration was executed at: 10 μl/sec speed, 4.6 μl height; Dispensing was executed at: 30 μl/sec speed, 45 μl height. After compound addition, each well was read for 300 sec, with measurements collected at 1 sec intervals.
The kinetic data from the FLIPR was based upon a 5 minute window for data collection. The fluorescence of each sample well was used for individual calculations of a normalized RFU value, which was defined as maximum response minus the minimum response. The normalized fluorescence reading (RFU) was calculated as follows: RFU=Fmax−Fmin
The data were fitted to a sigmoidal dose-response curve with a variable Hill slope (<2) using nonlinear regression with GraphPad Prism 5.0 to calculate the EC50 values. The Fitting Equation was: Y=Bottom+(Top−Bottom)/(1+10^((LogEC50−X)*HillSlope)), where X is the log of the concentration and Y is the response.

In assay [3] the target is T3, long form of human GPR120 (Homo sapiens, UniProt Q5NUL3).
T3 construct: host or cells: PathHunter CHO-K1 GPR120 β-Arrestin Cell Line
T3 sequence (Q5NUL3 1-377 isoform Q5NUL3-1): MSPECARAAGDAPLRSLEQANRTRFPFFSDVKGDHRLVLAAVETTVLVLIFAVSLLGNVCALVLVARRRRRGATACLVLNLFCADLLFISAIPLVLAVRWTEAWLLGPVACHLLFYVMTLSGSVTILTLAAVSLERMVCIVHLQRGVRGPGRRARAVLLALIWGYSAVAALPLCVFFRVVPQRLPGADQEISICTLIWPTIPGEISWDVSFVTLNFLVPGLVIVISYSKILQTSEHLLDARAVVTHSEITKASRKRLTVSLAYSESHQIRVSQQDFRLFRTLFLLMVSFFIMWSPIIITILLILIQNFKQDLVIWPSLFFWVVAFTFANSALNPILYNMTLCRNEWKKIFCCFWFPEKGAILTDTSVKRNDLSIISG
Kind of assay: Human GPR120 DiscoveRx PathHunter Beta-Arrestin Assay, Procedure β-arrestin A (3000 cells per well). The note with it: read-out: GPR120 B-arrestin A EC50.
Description: as §1
In Procedure β-arrestin A, the cell used were PathHunter CHO-K1 GPR120 β-Arrestin Cell Line, expressing the long form of human GPR120 (Genbank accession number NM_181745), with 3000 cells per well.
as §2, §3, §4, §5

As for `Cc1c(CCC(=O)O)ccc(OCc2cc(Cl)cc3sc(C(F)(F)F)nc23)c1C` [Compound 119, 3-(4-{[6-Chloro-2-(trifluoromethyl)-1,3-benzothiazol-4-yl]methoxy}-2,3-dimethylphenyl)propanoic acid], in assay [1], the midpoint of the response, the EC50, lay at 1440 nM.

On to `Cc1nc2c(COc3ccc(CCC(=O)O)c(C)c3C)cc(OC(F)(F)F)cc2s1` [Compound 118, 3-(2,3-Dimethyl-4-{[2-methyl-6-(trifluoromethoxy)-1,3-benzothiazol-4-yl]methoxy}phenyl)propanoic acid], for which the concentration giving a half-maximal response (EC50) was 237 nM in assay [1] and 65 nM in assay [2].

As for `Cc1c(CCC(=O)O)ccc(OCc2cc(F)cc3sc(CC(C)C)nc23)c1C` [Compound 115, 3-(4-{[6-Fluoro-2-(2-methylpropyl)-1,3-benzothiazol-4-yl]methoxy}-2,3-dimethylphenyl)propanoic acid], the EC50 came out at 772 nM in assay [1] and 468 nM in assay [2].

Turning to `Cc1cc2cc(OC(F)(F)F)cc(COc3ccc(CCC(=O)O)c(C(F)(F)F)c3)c2o1` [Compound 112, 3-[4-{[2-Methyl-5-(trifluoromethoxy)-1-benzofuran-7-yl]methoxy}-2-(trifluoromethyl)phenyl]propanoic acid], the EC50 came out at 110 nM in assay [1] and 121 nM in assay [2].

On to `Cc1c(CCC(=O)O)ccc(OCc2cc(F)cc3sc(C(F)(F)F)nc23)c1C` [Compound 117, 3-(4-{[6-Fluoro-2-(trifluoromethyl)-1,3-benzothiazol-4-yl]methoxy}-2,3-dimethylphenyl)propanoic acid], for which the figures for the concentration for a half-maximal effect (EC50) in assay [1] and in assay [2] were 681 nM and 422 nM, respectively.

Consider `Cc1cc2c(COc3ccc(CCC(=O)O)c(F)c3F)cccc2o1` [Compound 6, 3-{2,3-Difluoro-4-[(2-methyl-1-benzofuran-4-yl)methoxy]phenyl}propanoic acid], for which the EC50 in assay [3] was over 20000 nM.

As for `CCCc1cc2cc(C(C)(F)F)cc(COc3ccc(CCC(=O)O)c(C)c3C)c2o1` [Compound 79, 3-(4-{[5-(1,1-Difluoroethyl)-2-propyl-1-benzofuran-7-yl]methoxy}-2,3-dimethylphenyl)propanoic acid], the EC50 in assay [3] amounted to 2220 nM.

`Cc1oc2cccc(COc3ccc(CCC(=O)O)c(F)c3F)c2c1C` [Compound 1, 3-{4-[(2,3-Dimethyl-1-benzofuran-4-yl)methoxy]-2,3-difluorophenyl}propanoic acid]: the EC50 in assay [3] was over 20000 nM.

Take `Cc1nc2cc(Cl)cc(COc3ccc(CCC(=O)O)c(C)c3C)c2s1` [Compound 121, 3-{4-[(5-Chloro-2-methyl-1,3-benzothiazol-7-yl)methoxy]-2,3-dimethylphenyl}propanoic acid]: the EC50 stood at 1190 nM in assay [1] and 382 nM in assay [2].

For orientation: EC50 means the midpoint of the concentration-response curve.

The values above are taken from patent US9562053B2, “Benzo-fused heterocyclic derivatives useful as agonists of GPR120” (Janssen Pharmaceutica NV, priority 2013, dated 2017).
